Results taken from BindingDB's records for doi:10.1021/jm5004733 (University of Texas Medical Branch, 2014).

target: Transcription factor Jun (Homo sapiens, UniProt P05412); experiment: Inhibition of AP-1-mediated transcriptional activation in human Jurkat cells by luciferase reporter gene assay
Sequence (P05412 whole entry): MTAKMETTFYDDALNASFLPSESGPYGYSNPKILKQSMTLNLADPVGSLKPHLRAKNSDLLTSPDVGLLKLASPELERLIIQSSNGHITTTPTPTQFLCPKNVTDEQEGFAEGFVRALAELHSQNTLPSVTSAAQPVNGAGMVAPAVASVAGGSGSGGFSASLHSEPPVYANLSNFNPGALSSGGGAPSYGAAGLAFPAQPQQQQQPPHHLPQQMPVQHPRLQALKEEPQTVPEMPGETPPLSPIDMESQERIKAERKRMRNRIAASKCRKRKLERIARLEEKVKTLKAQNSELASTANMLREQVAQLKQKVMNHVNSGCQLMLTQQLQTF

`O=C(Nc1cc(C(F)(F)F)cc(C(F)(F)F)c1)c1ccc(Cl)cc1C(F)(F)F` [N-(3,5-Bis-trifluoromethyl-phenyl)-4-chloro-2-trifluoromethyl-benzamide] and `N#Cc1ncc(C(=O)Nc2cc(C(F)(F)F)cc(C(F)(F)F)c2)c(C(F)(F)F)n1` [2-Cyano-4-trifluoromethyl-pyrimidine-5-carboxylic acid (3,5-bis-trifluoromethyl-phenyl)-amide] cannot be ordered by IC50: over 30 µM for the first, over 10 µM for the second.

Work on `O=C(Nc1cc(C(F)(F)F)cc(C(F)(F)F)c1)c1cnc(C(F)(F)F)nc1C(F)(F)F` [2,4-Bis-trifluoromethyl-pyrimidine-5-carboxylic acid (3,5-bis-trifluoromethyl-phenyl)-amide] yielded an IC50 of over 10 µM.
